This is an account of results in article PMC8919389, “Discovery of TAK-925 as a Potent, Selective, and Brain-Penetrant Orexin 2 Receptor Agonist” (ACS Medicinal Chemistry Letters, 2022).

Like-named read-outs stand apart in the source and are kept apart here.

For one series, the target named is T1, human OX2R (Homo sapiens, UniProt O43614).
T1 sequence (O43614 1-444): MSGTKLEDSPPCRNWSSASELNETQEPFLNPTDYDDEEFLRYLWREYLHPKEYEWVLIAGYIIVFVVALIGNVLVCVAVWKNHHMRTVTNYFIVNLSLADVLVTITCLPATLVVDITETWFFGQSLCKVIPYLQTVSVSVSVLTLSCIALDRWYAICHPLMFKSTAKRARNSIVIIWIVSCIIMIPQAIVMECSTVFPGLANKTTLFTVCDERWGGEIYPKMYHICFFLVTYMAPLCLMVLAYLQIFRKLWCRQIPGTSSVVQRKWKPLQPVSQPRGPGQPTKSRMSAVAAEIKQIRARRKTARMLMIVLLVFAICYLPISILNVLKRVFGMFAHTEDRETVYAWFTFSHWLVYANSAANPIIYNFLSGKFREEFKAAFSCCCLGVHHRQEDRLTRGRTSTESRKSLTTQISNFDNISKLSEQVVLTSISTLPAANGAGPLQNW
Briefly: Calcium flux assay, OX2R agonistic activity. A general note: Calcium assays in cells follow changes in intracellular calcium, usually with a dye or a luminescent sensor.

A further series addresses T2, human OX1R (Homo sapiens, UniProt O43613).
T2 construct: expressed in transfected cells; host or cells: CHO-K1
T2 sequence (O43613 1-425): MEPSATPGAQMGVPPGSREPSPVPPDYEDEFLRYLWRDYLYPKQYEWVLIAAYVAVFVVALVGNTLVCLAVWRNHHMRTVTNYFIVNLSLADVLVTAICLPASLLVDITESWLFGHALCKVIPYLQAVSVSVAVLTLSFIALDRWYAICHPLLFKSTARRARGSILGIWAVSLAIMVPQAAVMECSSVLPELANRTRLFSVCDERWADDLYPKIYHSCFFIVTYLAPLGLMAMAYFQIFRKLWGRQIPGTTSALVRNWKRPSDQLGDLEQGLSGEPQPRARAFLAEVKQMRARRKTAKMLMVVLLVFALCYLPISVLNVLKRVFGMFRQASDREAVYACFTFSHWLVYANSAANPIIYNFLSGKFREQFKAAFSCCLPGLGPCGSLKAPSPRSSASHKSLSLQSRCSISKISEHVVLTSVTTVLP
Briefly: Calcium flux assay, OX1R agonistic activity. The format is cell-based. The conditions noted are these: CHO cells expressing human OX1R, 95% confidence intervals in brackets, duplicate measurements. As to the method:
Calcium flux assay (in vitro agonistic activity of OX2R and OX1R)1 hOX1R/CHO -K1 cells and hOX2R/CHO-K1 cells suspended in Ham's F-12 medium (Fujifilm Wako Pure Chemical Co.) supplemented with 100 U/mL penicillin-streptomycin and 10% FBS […]
cells/well and in black-walled clear -bottomed 96-well plates (Corning) at 45000 cells/well, respectively. The plated cells were grown overnight at 37 °C in the presence of 5% CO2. The following day, the medium was removed, and the cells were incubated with assay buffer ( H BS S with 20mM HEPES, pH 7.4, and 0.1% fatty acid free BSA) containing 2.5 μg/mL Fluo- 4 AM […]
Laboratories), and 0.08% Pluronic F127 (Dojindo Laboratories) for 30 min at 37 °C in the presence of 5% CO2. After incubation, the cells were stimulated with test compounds in the assay buffer. Calcium mobilization was measured using an FDSS/μCELL (Hamamatsu Photonics […]
r epr esent the 0% and 100% responses, respectively.

Series [1] addresses multidrug resistance protein 1 (MDR-1) (Homo sapiens, UniProt P08183). The series is described as follows: Transcellular transport study using human MDR1-expressing LLC-PK1 cells. The settings on record: for MDR-1 ratio (directional transport ratio B to A/A to B): 10 μM test compound, 2 h.
Procedure: Transcellular transport study using a t ransporter- exp ressi on syst em
Human MDR1-expressing LLC -PK1 cells were cultured as reported previously with minor
modifications. 2 T he transcellular transport study was performed as reported previously.2 In brief,
the cells were grown for 7 days in an HTS Transwell 96 -well permeable support (pore size, 0.4
μm; sur f ace ar ea, 0. 143 cm2) with a polyethylene ter ephthalate membr ane ( Cor ning Lif e Sciences,
T he cells wer e pr eincubated with M199
at 37 °C for 30 min. Subsequently, transcellular transport was initiated by the addition of M199
either to apical compartments (75 μ L) or to the basolateral compartments (250 μ L) containing 10
μM digoxin, 200 μM lucifer yellow as a marker for the monolayer tightness, and 10 μM test
compounds and then terminated by the removal of each assay plate after 2 h. The aliquots (25
μL) in the opposite compartments were mixed with acetonitrile containing alprenolol an d
diclofenac as an internal standard and then centrifuged. The compound concentrations in the
supernatant were measured by LC− MS/MS. The apparent permeability (Pap p ) of test compounds
in the receiver wells was deter mined, and the efflux ratio for the MDR1 membrane permeability
test was calculated using the following equation:
Efflux ratio = Papp,BtoA/Papp,AtoB
wher e Papp,AtoB is the apical-to-ba sal passive permeability−sur f ace ar ea pr oduct and P app,BtoA is the
basal-to -apical pas sive per meability−sur f ace ar ea pr oduct.
The subject of another series is ICR mice. Briefly: Wakefulness time in ICR mice during the sleep phase (EEG/EMG). The class given is in vivo. The settings on record: sleep phase (ZT5), 3 mg/kg subcutaneous, n = 8, P < 0.001 vs vehicle. As to the method:
It has been reported that activation of the orexin system by intracerebroventricular injection of OX-A increases wakefulness in rodents.[20],[21] In this study, we assessed the effect of compound 16 on wakefulness time in ICR mice during the sleep phase based on the measurements of electroencephalogram and electromyogram.
Figure 5 Effect of compound 16 on wakefulness time in ICR mice during the sleep phase. Compound 16 at 3 mg/kg or vehicle was administered subcutaneously to ICR mice at zeitgeber time 5, and electroencephalograms and electromyograms were recorded. Analysis was performed with data collected during 3 h after drug administration. Data were presented as the mean + standard error of the mean (n = 8). ***P < 0.001, compared with the vehicle-treated mice (two-tailed paired t test).
Evaluation of wakefulness time m easu rem ent of compound 16 in m ice
I CR mice were obtained from CLEA Japan Inc. (Tokyo, Japan). M ice were housed in groups of 4 per cage in a light controlled room (12 h light/dark cycle with lights on at 07:00 h). Food and tap water were provided ad libitum . […] 1 Compound 16 at 3 mg/kg suspended in 0.5% methylcellulose saline was administered subcutaneously to mice at zeitgeber time 5 (ZT5) in a volume of 10 mL/kg body weight, and then EE G was recorded. […] The statistical significance between two groups was determined by paired t-test with significance set at P < 0.05. […]

A short description of series [2]: Brain and plasma concentration after intraperitoneal administration in mice. The format is in vivo, C57BL/6J mice. The conditions noted are these: 10 mg/kg ip; for concentration at 0.5 h / concentration at 1 h: n = 3. The method, then:
Brain and plasma concentration of compound 16 was measured after intraperitoneal administration at 10 mg/kg in mice (Table 5).
Measurem ent of plasm a and brain concent rat ion of compound 16 in mice The aliquots of the brain homogenate were mixed with acetonitrile containing internal standard.
The mixtures were centrifuged. The supernatants were diluted with solvents for LC-MS / MS (mobile phase A: 10 mM ammonium formate/formic acid (100/0.2, v/v), mobile phase B: acetonitrile/formic acid (100/0.2, v/v)). The diluted solutions were injected into LC-MS / MS (API5000, AB Sciex, CA) equipped with Shimadzu Shim-pack XR-ODS (2.2 μm, 2.0 × 30 mm, Shimadzu Corporation, Japan) at 50 °C. Analyst sof twar e T M ( ver sio n 1.4.2) was used for data acquisition and processing.
Ethics Statement. The care and use of the animals and the experimental protocols used in this research were approved by the Experimental Animal Care and Use Committee of Takeda Phar maceutical Company Limited.

[3] abbreviates: read-out: OX2R agonistic activity EC50, CHO cells expressing human OX2R, calcium flux, 95% confidence intervals in brackets, duplicate measurements.

By EC50 is commonly meant the concentration giving half of the maximal effect. As to `CC(=O)N1CCC[C@H](NS(C)(=O)=O)[C@@H]1CO[C@H]1CC[C@@H](C)CC1` (relative stereo) [compound 12], the half-maximal effective concentration (EC50) is 3.7 µM at human OX2R and above 100 µM on human OX1R.
For the compound `CCCS(=O)(=O)N[C@H]1CCCN(C(C)=O)[C@H]1CO[C@H]1CC[C@@H](C(C)C)CC1` [compound 9], the EC50 at human OX2R (setting [3]) was 2.5 µM; on human OX1R, above 100 µM.
The matching figures for `CCS(=O)(=O)N[C@@H]1CCCN(C(C)=O)[C@H]1CO[C@H]1CC[C@H](C(C)C)CC1` [compound 6]: above 30 µM and above 100 µM.
As for `CCS(=O)(=O)N[C@@H]1CCCN(C(C)=O)[C@H]1CO[C@H]1CC[C@@H](C(C)C)CC1` [compound 4], the EC50 was above 30 µM on human OX2R (setting [3]) and above 100 µM at human OX1R.
For orientation: Emax means the size of the effect at its maximum, as opposed to the concentration needed. For the compound `CCS(=O)(=O)NC1CCCN(C(C)=O)C1COC1CCC(C(C)C)CC1` (stereo not drawn) [compound 2], the EC50 was 0.57 µM at human OX2R (setting [3]) and above 100 µM at human OX1R. Also, the maximum response (Emax) on human OX2R (read-out: maximum response [Emax], OX2R agonism) was 94%.
As for `CCOC(=O)N1CCC[C@H](NS(C)(=O)=O)[C@@H]1CO[C@H]1CC[C@@H](c2ccccc2)CC1` [compound 17], in series [1], the “MDR-1 ratio (directional transport ratio B to A/A to B)” value (“MDR-1 ratio” below) came to 0.7. Also, the half-maximal effective concentration (EC50) on human OX2R (setting [3]) is 0.027 µM; on human OX1R, above 100 µM.
For `CS(=O)(=O)N[C@H]1CCCN[C@H]1CO[C@H]1CC[C@@H](c2ccccc2)CC1` [compound 14], in series [1], the “MDR-1 ratio” value is 0.8. Moreover, the EC50 at human OX1R was above 100 µM.
As to `CCC(=O)N1CCC[C@H](NS(C)(=O)=O)[C@@H]1CO[C@H]1CC[C@@H](c2ccccc2)CC1` [compound 15], in series [1], the “MDR-1 ratio” value came to 2.2. Besides, the figures for the EC50 on human OX2R (setting [3]) and on human OX1R were 0.011 µM and above 100 µM, respectively.
As for `CC(=O)N1CCC[C@H](N(C)S(C)(=O)=O)[C@@H]1CO[C@H]1CC[C@@H](C(C)C)CC1` [compound 10], the EC50 on human OX2R (setting [3]) was above 30 µM; on human OX1R, above 100 µM.
Consider `CCNC(=O)N1CCC[C@H](NS(C)(=O)=O)[C@@H]1CO[C@H]1CC[C@@H](c2ccccc2)CC1` [compound 18], for which the “MDR-1 ratio” value in series [1] is 4.8. Further, on human OX1R, the EC50 came out at 14 µM.
As to `COC(=O)N1CCC[C@H](NS(C)(=O)=O)[C@@H]1CO[C@H]1CC[C@@H](c2ccccc2)CC1` [compound 16, methyl (2R,3S)-3-((methylsulfonyl)amino)-2-(((cis-4-phenylcyclohexyl)oxy)methyl)piperidine-1-carboxylate], the “total wakefulness time during 3 h after administration” value with ICR mice is “significantly increased”. The “MDR-1 ratio” value in series [1] came out at 0.8. Moreover, the “MDR-1 transport A to B” value in series [1] (apical to basal) came out at 169. In addition, the half-life in mice result in series [2] (mice) is listed as “short half-life”. Further, in series [2] (mouse, brain/plasma, C57BL/6J mice, 0.5 h, read-out: brain-to-plasma concn ratio), the Kp at 0.5 h was 0.2. The Kp at 1 h in series [2] (mouse, brain/plasma, C57BL/6J mice, 1 h, read-out: brain-to-plasma concn ratio) was 0.2. The concentration at 0.5 h in series [2] (mouse, brain, C57BL/6J mice, 0.5 h, read-out: brain concn) came out at 183 ng/g; in series [2] (mouse, plasma, C57BL/6J mice, 0.5 h, read-out: plasma concn), 880 ng/mL. Moreover, the concentration at 1 h in series [2] (mouse, brain, C57BL/6J mice, 1 h, read-out: brain concn) was 63 ng/g; in series [2] (mouse, plasma, C57BL/6J mice, 1 h, read-out: plasma concn), 288 ng/mL. In addition, the EC50 on human OX2R (setting [3]) was 0.0055 µM; at human OX1R, above 100 µM.
For `CC(=O)N1CCC[C@H](NS(=O)(=O)C(C)C)[C@@H]1CO[C@H]1CC[C@@H](C(C)C)CC1` [compound 8], the EC50 at human OX2R (setting [3]) is 0.94 µM; at human OX1R it was above 100 µM.
The matching figures for `CCS(=O)(=O)N[C@H]1CCCN(C(C)=O)[C@H]1CO[C@H]1CC[C@@H](C(C)C)CC1` [compound 3]: 0.27 µM and above 100 µM.
Take `CC(=O)N1CCC[C@H](NS(C)(=O)=O)[C@@H]1CO[C@H]1CC[C@@H](C(C)C)CC1` [compound 7]: the values for the EC50 at human OX2R (setting [3]) and on human OX1R were 0.33 µM and above 100 µM, respectively.
Take `CCS(=O)(=O)N[C@H]1CCCN(C(C)=O)[C@H]1CO[C@H]1CC[C@H](C(C)C)CC1` [compound 5]: the 50% effective concentration (EC50) is above 30 µM at human OX2R (setting [3]) and above 100 µM at human OX1R.
As for `CC(=O)N[C@H]1CCCN(C(C)=O)[C@H]1CO[C@H]1CC[C@@H](C(C)C)CC1` (stereo in doubt) [compound 11], the EC50 at human OX2R was above 30 µM; at human OX1R it was above 100 µM.
